Key:
[1] = test system: CCRF-CEM; assay: NCI-60 SRB screen; format: cell-based; settings: Homo sapiens, single dose 10^−5 M, Leukaemia, read-out: Growth inhibition (%)
[2] = test system: HL-60(TB); assay: NCI-60 SRB screen; format: cell-based, human; settings: Homo sapiens; single dose 10^−5 M; HL-60(TB), Leukaemia; read-out: Growth inhibition (%)
[3] = test system: K-562; assay: NCI-60 SRB screen; format: cell-based, human; settings: Homo sapiens, K562; single dose 10^−5 M; K-562, Leukaemia; read-out: Growth inhibition (%)
[4] = test system: MOLT-4; assay: NCI-60 SRB screen; format: cell-based; settings: Homo sapiens; single dose 10^−5 M; MOLT-4, Leukaemia; read-out: Growth inhibition (%)
[5] = test system: SR; assay: NCI-60 SRB screen; format: cell-based; settings: Homo sapiens, single dose 10^−5 M, Leukaemia, read-out: Growth inhibition (%)
[6] = test system: A549/ATCC; assay: NCI-60 SRB screen; format: cell-based, human; settings: Homo sapiens, single dose 10^−5 M, Non-small cell lung carcinoma, read-out: Growth inhibition (%)
[7] = test system: EKVX; assay: NCI-60 SRB screen; format: cell-based, human; settings: Homo sapiens, single dose 10^−5 M, Non-small cell lung carcinoma, read-out: Growth inhibition (%)
[8] = test system: HOP-62; assay: NCI-60 SRB screen; format: cell-based, human; settings: Homo sapiens; single dose 10^−5 M; HOP-62, Non-small cell lung carcinoma; read-out: Growth inhibition (%)
[9] = test system: HOP-92; assay: NCI-60 SRB screen; format: cell-based, human; settings: Homo sapiens; single dose 10^−5 M; HOP-92, Non-small cell lung carcinoma; read-out: Growth inhibition (%)
[10] = test system: NCI-H226; assay: NCI-60 SRB screen; format: cell-based, human; settings: Homo sapiens; single dose 10^−5 M; NCI-H226, Non-small cell lung carcinoma; read-out: Growth inhibition (%)
[11] = test system: NCI-H23; assay: NCI-60 SRB screen; format: cell-based, human; settings: Homo sapiens; single dose 10^−5 M; NCI-H23, Non-small cell lung carcinoma; read-out: Growth inhibition (%)
[12] = test system: NCI-H322M; assay: NCI-60 SRB screen; format: cell-based, human; settings: Homo sapiens, single dose 10^−5 M, Non-small cell lung carcinoma, read-out: Growth inhibition (%)
[13] = test system: NCI-H460; assay: NCI-60 SRB screen; format: cell-based, human; settings: Homo sapiens; single dose 10^−5 M; NCI-H460, Non-small cell lung carcinoma; read-out: Growth inhibition (%)
[14] = test system: NCI-H522; assay: NCI-60 SRB screen; format: cell-based, human; settings: Homo sapiens; single dose 10^−5 M; NCI-H522, Non-small cell lung carcinoma; read-out: Growth inhibition (%)
[15] = test system: COLO 205; assay: NCI-60 SRB screen; format: cell-based, human; settings: Homo sapiens; single dose 10^−5 M; COLO 205, Colon cancer; read-out: Growth inhibition (%)
[16] = test system: HCT-116; assay: NCI-60 SRB screen; format: cell-based, human; settings: Homo sapiens; single dose 10^−5 M; HCT-116, Colon cancer; read-out: Growth inhibition (%)
[17] = test system: HCT-15; assay: NCI-60 SRB screen; format: cell-based, human; settings: Homo sapiens; single dose 10^−5 M; HCT-15, Colon cancer; read-out: Growth inhibition (%)
[18] = test system: HT-29; assay: NCI-60 SRB screen; format: cell-based; settings: Homo sapiens; single dose 10^−5 M; HT-29, Colon cancer; read-out: Growth inhibition (%)
[19] = test system: KM12; assay: NCI-60 SRB screen; format: cell-based, human; settings: Homo sapiens; single dose 10^−5 M; KM12, Colon cancer; read-out: Growth inhibition (%)
[20] = test system: SW-620; assay: NCI-60 SRB screen; format: cell-based; settings: Homo sapiens; single dose 10^−5 M; SW-620, Colon cancer; read-out: Growth inhibition (%)
[21] = test system: SF-268; assay: NCI-60 SRB screen; format: cell-based, human; settings: Homo sapiens; single dose 10^−5 M; SF-268, CNS cancer; read-out: Growth inhibition (%)
[22] = test system: SF-295; assay: NCI-60 SRB screen; format: cell-based, human; settings: Homo sapiens; single dose 10^−5 M; SF-295, CNS cancer; read-out: Growth inhibition (%)
[23] = test system: MALME-3M; assay: NCI-60 SRB screen; format: cell-based, human; settings: Homo sapiens, single dose 10^−5 M, Melanoma, read-out: Growth inhibition (%)
[24] = test system: M14; assay: NCI-60 SRB screen; format: cell-based, human; settings: Homo sapiens; single dose 10^−5 M; M14, Melanoma; read-out: Growth inhibition (%)
[25] = test system: MDA-MB-435; assay: NCI-60 SRB screen; format: cell-based; settings: Homo sapiens, MDA-MB-435, read-out: Growth inhibition (%)
[26] = test system: SK-MEL-2; assay: NCI-60 SRB screen; format: cell-based, human; settings: Homo sapiens; single dose 10^−5 M; SK-MEL-2, Melanoma; read-out: Growth inhibition (%)
[27] = test system: SK-MEL-28; assay: NCI-60 SRB screen; format: cell-based; settings: Homo sapiens; single dose 10^−5 M; SK-MEL-28, Melanoma; read-out: Growth inhibition (%)
[28] = test system: SK-MEL-5; assay: NCI-60 SRB screen; format: cell-based, human; settings: Homo sapiens; single dose 10^−5 M; SK-MEL-5, Melanoma; read-out: Growth inhibition (%)
[29] = test system: UACC-257; assay: NCI-60 SRB screen; format: cell-based, human; settings: Homo sapiens; single dose 10^−5 M; UACC-257, Melanoma; read-out: Growth inhibition (%)
[30] = test system: UACC-62; assay: NCI-60 SRB screen; format: cell-based, human; settings: Homo sapiens; single dose 10^−5 M; UACC-62, Melanoma; read-out: Growth inhibition (%)
[31] = test system: IGROV1; assay: NCI-60 SRB screen; format: cell-based, human; settings: Homo sapiens, IGROV-1; single dose 10^−5 M; IGROV1, Ovarian cancer; read-out: Growth inhibition (%)
[32] = test system: OVCAR-3; assay: NCI-60 SRB screen; format: cell-based, human; settings: Homo sapiens; single dose 10^−5 M; OVCAR-3, Ovarian cancer; read-out: Growth inhibition (%)
[33] = test system: OVCAR-4; assay: NCI-60 SRB screen; format: cell-based, human; settings: Homo sapiens; single dose 10^−5 M; OVCAR-4, Ovarian cancer; read-out: Growth inhibition (%)
[34] = test system: OVCAR-8; assay: NCI-60 SRB screen; format: cell-based, human; settings: Homo sapiens; single dose 10^−5 M; OVCAR-8, Ovarian cancer; read-out: Growth inhibition (%)
[35] = test system: NCI/ADR-RES; assay: NCI-60 SRB screen; format: cell-based, human; settings: Homo sapiens, single dose 10^−5 M, Ovarian cancer, read-out: Growth inhibition (%)
[36] = test system: SK-OV-3; assay: NCI-60 SRB screen; format: cell-based, human; settings: Homo sapiens; single dose 10^−5 M; SK-OV-3, Ovarian cancer; read-out: Growth inhibition (%)
[37] = test system: 786-0; assay: NCI-60 SRB screen; format: cell-based; settings: Homo sapiens; single dose 10^−5 M; 786-0, Renal cancer; read-out: Growth inhibition (%)
[38] = test system: ACHN; assay: NCI-60 SRB screen; format: cell-based; settings: Homo sapiens, single dose 10^−5 M, Renal cancer, read-out: Growth inhibition (%)
[39] = test system: CAKI-1; assay: NCI-60 SRB screen; format: cell-based, human; settings: Homo sapiens; single dose 10^−5 M; CAKI-1, Renal cancer; read-out: Growth inhibition (%)
[40] = test system: RXF 393; assay: NCI-60 SRB screen; format: cell-based, human; settings: Homo sapiens; single dose 10^−5 M; RXF 393, Renal cancer; read-out: Growth inhibition (%)
[41] = test system: SN12C; assay: NCI-60 SRB screen; format: cell-based, human; settings: Homo sapiens, SN12C; single dose 10^−5 M; SN 12 C, Renal cancer; read-out: Growth inhibition (%)
[42] = test system: TK-10; assay: NCI-60 SRB screen; format: cell-based, human; settings: Homo sapiens; single dose 10^−5 M; TK-10, Renal cancer; read-out: Growth inhibition (%)
[43] = test system: UO-31; assay: NCI-60 SRB screen; format: cell-based, human; settings: Homo sapiens; single dose 10^−5 M; UO-31, Renal cancer; read-out: Growth inhibition (%)
[44] = test system: panel of 60 cancer cell lines; assay: NCI-60 SRB screen, mean or range over the panel; format: cell-based, human; settings: Homo sapiens; mean over the cell lines; single dose 10^−5 M; read-out: Mean growth inhibition (%)

N#CC1=C(Nc2ccccc2F)NC(c2cccc([N+](=O)[O-])c2)c2sc3c(F)cccc3c21 (centres unmarked) [Compound 10, 4-Cyano-8-fluoro-3((2-fluorophenyl)amino)-1–(3-nitrophenyl)-1,2-dihydro[1]benzothieno[2,3-c]pyridine]
inhibition at 10 µM [1]: 2.96%
inhibition at 10 µM [2]: -13.1%
inhibition at 10 µM [3]: 2.72%
inhibition at 10 µM [4]: 6.48%
inhibition at 10 µM [5]: 13%
inhibition at 10 µM [6]: -7.45%
inhibition at 10 µM [7]: 9.27%
inhibition at 10 µM [8]: 8.27%
inhibition at 10 µM [9]: 9.6%
inhibition at 10 µM [10]: 12.8%
inhibition at 10 µM [11]: -1.96%
inhibition at 10 µM [12]: -0.11%
inhibition at 10 µM [13]: -1.1%
inhibition at 10 µM [14]: -2.13%
inhibition at 10 µM [15]: -13.3%
inhibition at 10 µM [16]: 3.44%
inhibition at 10 µM [17]: -5.46%
inhibition at 10 µM [18]: -14.2%
inhibition at 10 µM [19]: 0.14%
inhibition at 10 µM [20]: 2.45%
inhibition at 10 µM [21]: 4.7%
inhibition at 10 µM [22]: -4.19%
inhibition at 10 µM [23]: -15.1%
inhibition at 10 µM [24]: 1.68%
inhibition at 10 µM [25]: -4.45%
inhibition at 10 µM [26]: 0.67%
inhibition at 10 µM [27]: -11%
inhibition at 10 µM [28]: -19.6%
inhibition at 10 µM [29]: -23.2%
inhibition at 10 µM [30]: 6.75%
inhibition at 10 µM [31]: 16.1%
inhibition at 10 µM [32]: -1.64%
inhibition at 10 µM [33]: -3.9%
inhibition at 10 µM [34]: -6.58%
inhibition at 10 µM [35]: -8.27%
inhibition at 10 µM [36]: 10.1%
inhibition at 10 µM [37]: -12.3%
inhibition at 10 µM [38]: 9.97%
inhibition at 10 µM [39]: 21.1%
inhibition at 10 µM [40]: -5.32%
inhibition at 10 µM [41]: 0.49%
inhibition at 10 µM [42]: -55.4%
inhibition at 10 µM [43]: 31.2%
inhibition at 10 µM [44]: -0.095%

Reference: publication PMC8330742, “New benzothieno[2,3-c]pyridines as non-steroidal CYP17 inhibitors: design, synthesis, anticancer screening, apoptosis induction, and in silico ADME profile studies” (Journal of Enzyme Inhibition and Medicinal Chemistry, 2021)
